Columns and labels:
RIPK4 = RIPK4 (Homo sapiens (Human), UniProt P57078); experiment: Kinome-wide profiling; assay type: biochemical; conditions: read-out: % Residual Activity (mean)
MST2/STK3 = MST2/STK3 (Homo sapiens (Human), UniProt Q13188); experiment: Kinome-wide profiling; assay type: biochemical; conditions: read-out: % Residual Activity (mean)
CK2a2 = CK2a2 (Homo sapiens (Human), UniProt P19784); experiment: Kinome-wide profiling; assay type: biochemical; conditions: read-out: % Residual Activity (mean)
RIPK5 = RIPK5 (Homo sapiens (Human), UniProt Q6XUX3); experiment: Kinome-wide profiling; assay type: biochemical; conditions: read-out: % Residual Activity (mean)
ACK1 = ACK1 (Homo sapiens (Human), UniProt Q07912); experiment: Kinome-wide profiling; assay type: biochemical; conditions: read-out: % Residual Activity (mean)
LATS2 = LATS2 (Homo sapiens (Human), UniProt Q9NRM7); experiment: Kinome-wide profiling; assay type: biochemical; conditions: read-out: % Residual Activity (mean)
TSSK3/STK22C = TSSK3/STK22C (Homo sapiens (Human), UniProt Q96PN8); experiment: Kinome-wide profiling; assay type: biochemical; conditions: read-out: % Residual Activity (mean)
PLK3 = PLK3 (Homo sapiens (Human), UniProt Q9H4B4); experiment: Kinome-wide profiling; assay type: biochemical; conditions: read-out: % Residual Activity (mean)
SK-Br3 and HCC1954 cells = experiment: Combined treatment with trastuzumab; assay type: cell-based; conditions: 40 nM Example 53 with trastuzumab titration, 72 hours
From the text: The effect of combined administration was investigated in SK-Br3 and HCC1954 cells.

PKCb2 = PKCb2 (Homo sapiens (Human), UniProt P05771); experiment: Kinome-wide profiling; assay type: biochemical; conditions: read-out: % Residual Activity (mean)
FMS = FMS (Homo sapiens (Human), UniProt P07333); experiment: Kinome-wide profiling; assay type: biochemical; conditions: read-out: % Residual Activity (mean)
CDK2/cyclin O = CDK2/cyclin O (Homo sapiens (Human), UniProt P24941); experiment: Kinome-wide profiling; assay type: biochemical; conditions: read-out: % Residual Activity (mean)
NLK = NLK (Homo sapiens (Human), UniProt Q9UBE8); experiment: Kinome-wide profiling; assay type: biochemical; conditions: read-out: % Residual Activity (mean)
TYK2 = TYK2 (Homo sapiens (Human), UniProt P29597); experiment: Kinome-wide profiling; assay type: biochemical; conditions: read-out: % Residual Activity (mean)
SRPK1 = SRPK1 (Homo sapiens (Human), UniProt Q96SB4); experiment: Kinome-wide profiling; assay type: biochemical; conditions: read-out: % Residual Activity (mean)
FGFR3 = FGFR3 (Homo sapiens (Human), UniProt P22607); experiment: Kinome-wide profiling; assay type: biochemical; conditions: read-out: % Residual Activity (mean)
EPHA5 = EPHA5 (Homo sapiens (Human), UniProt P54756); experiment: Kinome-wide profiling; assay type: biochemical; conditions: read-out: % Residual Activity (mean)
CDK5/p35 = CDK5/p35 (Homo sapiens (Human), UniProt Q00535); experiment: Kinome-wide profiling; assay type: biochemical; conditions: read-out: % Residual Activity (mean)
CDK9/cyclin T2 = CDK9/cyclin T2 (Homo sapiens (Human), UniProt P50750); experiment: Kinome-wide profiling; assay type: biochemical; conditions: read-out: % Residual Activity (mean)
FLT4/VEGFR3 = FLT4/VEGFR3 (Homo sapiens (Human), UniProt P35916); experiment: Kinome-wide profiling; assay type: biochemical; conditions: read-out: % Residual Activity (mean)
PIM3 = PIM3 (Homo sapiens (Human), UniProt Q86V86); experiment: Kinome-wide profiling; assay type: biochemical; conditions: read-out: % Residual Activity (mean)
PKCd = PKCd (Homo sapiens (Human), UniProt Q05655); experiment: Kinome-wide profiling; assay type: biochemical; conditions: read-out: % Residual Activity (mean)
FAK/PTK2 = FAK/PTK2 (Homo sapiens (Human), UniProt Q05397); experiment: Kinome-wide profiling; assay type: biochemical; conditions: read-out: % Residual Activity (mean)
YSK4/MAP3K19 = YSK4/MAP3K19 (Homo sapiens (Human), UniProt Q56UN5); experiment: Kinome-wide profiling; assay type: biochemical; conditions: read-out: % Residual Activity (mean)
DYRK4 = DYRK4 (Homo sapiens (Human), UniProt Q9NR20); experiment: Kinome-wide profiling; assay type: biochemical; conditions: read-out: % Residual Activity (mean)
PDGFRb = PDGFRb (Homo sapiens (Human), UniProt P09619); experiment: Kinome-wide profiling; assay type: biochemical; conditions: read-out: % Residual Activity (mean)
MLCK/MYLK = MLCK/MYLK (Homo sapiens (Human), UniProt Q15746); experiment: Kinome-wide profiling; assay type: biochemical; conditions: read-out: % Residual Activity (mean)
MKK7 = MKK7 (Homo sapiens (Human), UniProt O14733); experiment: Kinome-wide profiling; assay type: biochemical; conditions: read-out: % Residual Activity (mean)
Aurora A = Aurora A (Homo sapiens (Human), UniProt O14965); experiment: Kinome-wide profiling; assay type: biochemical; conditions: read-out: % Residual Activity (mean)
CAMK2b = CAMK2b (Homo sapiens (Human), UniProt Q13554); experiment: Kinome-wide profiling; assay type: biochemical; conditions: read-out: % Residual Activity (mean)
MEK5 = MEK5 (Homo sapiens (Human), UniProt Q13163); experiment: Kinome-wide profiling; assay type: biochemical; conditions: read-out: % Residual Activity (mean)
FGFR2 = FGFR2 (Homo sapiens (Human), UniProt P21802); experiment: Kinome-wide profiling; assay type: biochemical; conditions: read-out: % Residual Activity (mean)
WEE1 = WEE1 (Homo sapiens (Human), UniProt P30291); experiment: Kinome-wide profiling; assay type: biochemical; conditions: read-out: % Residual Activity (mean)
IRAK1 = IRAK1 (Homo sapiens (Human), UniProt P51617); experiment: Kinome-wide profiling; assay type: biochemical; conditions: read-out: % Residual Activity (mean)
ERN2/IRE2 = ERN2/IRE2 (Homo sapiens (Human), UniProt Q76MJ5); experiment: Kinome-wide profiling; assay type: biochemical; conditions: read-out: % Residual Activity (mean)
KSR2 = KSR2 (Homo sapiens (Human), UniProt Q6VAB6); experiment: Kinome-wide profiling; assay type: biochemical; conditions: read-out: % Residual Activity (mean)
KHS/MAP4K5 = KHS/MAP4K5 (Homo sapiens (Human), UniProt Q9Y4K4); experiment: Kinome-wide profiling; assay type: biochemical; conditions: read-out: % Residual Activity (mean)
JAK2 = JAK2 (Homo sapiens (Human), UniProt O60674); experiment: Kinome-wide profiling; assay type: biochemical; conditions: read-out: % Residual Activity (mean)
Sequence of JAK2 (O60674 whole entry): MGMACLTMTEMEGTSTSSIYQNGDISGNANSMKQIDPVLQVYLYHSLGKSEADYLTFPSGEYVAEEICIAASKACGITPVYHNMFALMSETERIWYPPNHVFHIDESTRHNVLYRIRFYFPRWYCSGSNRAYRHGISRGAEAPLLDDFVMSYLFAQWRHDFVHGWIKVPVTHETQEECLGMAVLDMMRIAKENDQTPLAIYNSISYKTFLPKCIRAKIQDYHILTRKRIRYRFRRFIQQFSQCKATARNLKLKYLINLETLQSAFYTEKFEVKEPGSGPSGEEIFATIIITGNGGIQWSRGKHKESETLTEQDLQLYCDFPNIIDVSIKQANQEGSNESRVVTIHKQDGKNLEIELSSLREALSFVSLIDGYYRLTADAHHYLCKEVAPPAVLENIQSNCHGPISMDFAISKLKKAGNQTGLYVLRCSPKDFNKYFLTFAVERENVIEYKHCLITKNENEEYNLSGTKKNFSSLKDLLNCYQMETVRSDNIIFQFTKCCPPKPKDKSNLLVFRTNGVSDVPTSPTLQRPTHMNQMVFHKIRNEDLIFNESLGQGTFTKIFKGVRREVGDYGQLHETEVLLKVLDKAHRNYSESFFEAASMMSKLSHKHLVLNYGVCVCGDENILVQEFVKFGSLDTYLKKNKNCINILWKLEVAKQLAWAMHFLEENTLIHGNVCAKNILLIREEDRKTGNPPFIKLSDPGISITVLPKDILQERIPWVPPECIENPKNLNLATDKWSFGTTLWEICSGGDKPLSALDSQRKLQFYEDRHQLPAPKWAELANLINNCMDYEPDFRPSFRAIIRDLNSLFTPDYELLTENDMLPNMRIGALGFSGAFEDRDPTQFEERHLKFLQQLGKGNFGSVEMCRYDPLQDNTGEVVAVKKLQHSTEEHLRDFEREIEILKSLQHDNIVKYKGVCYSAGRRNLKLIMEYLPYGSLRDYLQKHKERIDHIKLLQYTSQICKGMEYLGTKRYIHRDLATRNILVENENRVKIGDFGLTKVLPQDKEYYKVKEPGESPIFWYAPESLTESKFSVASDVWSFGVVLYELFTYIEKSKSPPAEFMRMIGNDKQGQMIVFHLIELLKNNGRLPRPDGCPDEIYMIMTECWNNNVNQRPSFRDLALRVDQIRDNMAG

Sequence of MKK7 (O14733 whole entry): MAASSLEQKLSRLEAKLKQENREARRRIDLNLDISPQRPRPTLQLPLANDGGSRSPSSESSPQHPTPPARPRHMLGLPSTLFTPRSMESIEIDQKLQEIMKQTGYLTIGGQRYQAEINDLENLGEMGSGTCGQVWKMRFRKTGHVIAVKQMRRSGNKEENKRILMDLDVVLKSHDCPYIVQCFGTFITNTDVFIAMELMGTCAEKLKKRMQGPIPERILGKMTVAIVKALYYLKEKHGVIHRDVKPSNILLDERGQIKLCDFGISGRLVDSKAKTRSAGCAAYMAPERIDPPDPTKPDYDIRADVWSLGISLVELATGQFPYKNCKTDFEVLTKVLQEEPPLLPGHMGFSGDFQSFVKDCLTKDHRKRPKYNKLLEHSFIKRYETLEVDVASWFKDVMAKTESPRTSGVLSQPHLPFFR
Sequence of RIPK5 (Q6XUX3 whole entry): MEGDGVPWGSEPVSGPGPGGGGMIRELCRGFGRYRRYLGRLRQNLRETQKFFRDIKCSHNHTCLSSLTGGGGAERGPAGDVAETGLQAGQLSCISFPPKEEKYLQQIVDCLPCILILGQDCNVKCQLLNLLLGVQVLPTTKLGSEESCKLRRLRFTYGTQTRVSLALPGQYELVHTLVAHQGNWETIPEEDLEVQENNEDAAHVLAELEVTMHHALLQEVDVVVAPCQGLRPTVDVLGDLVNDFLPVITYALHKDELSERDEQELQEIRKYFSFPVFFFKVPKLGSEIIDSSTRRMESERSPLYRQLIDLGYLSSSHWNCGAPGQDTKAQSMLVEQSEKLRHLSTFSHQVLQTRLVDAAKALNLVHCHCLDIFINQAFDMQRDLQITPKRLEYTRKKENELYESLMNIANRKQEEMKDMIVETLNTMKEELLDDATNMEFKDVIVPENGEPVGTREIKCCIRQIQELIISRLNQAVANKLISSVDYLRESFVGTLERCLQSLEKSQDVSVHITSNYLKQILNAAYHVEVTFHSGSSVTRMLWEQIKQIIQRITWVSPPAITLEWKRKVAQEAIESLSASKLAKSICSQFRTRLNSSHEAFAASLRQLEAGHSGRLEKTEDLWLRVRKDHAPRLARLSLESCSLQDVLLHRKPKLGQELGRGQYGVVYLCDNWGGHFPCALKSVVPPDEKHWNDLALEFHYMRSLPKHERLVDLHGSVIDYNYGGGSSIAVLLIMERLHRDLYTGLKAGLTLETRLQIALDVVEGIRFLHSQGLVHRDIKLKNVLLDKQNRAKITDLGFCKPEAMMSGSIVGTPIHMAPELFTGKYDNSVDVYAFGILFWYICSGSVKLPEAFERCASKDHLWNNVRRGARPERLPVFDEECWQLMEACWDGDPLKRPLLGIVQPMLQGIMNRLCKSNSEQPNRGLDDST
Sequence of PKCb2 (P05771 other isoform, or with tags, fused parts or gaps): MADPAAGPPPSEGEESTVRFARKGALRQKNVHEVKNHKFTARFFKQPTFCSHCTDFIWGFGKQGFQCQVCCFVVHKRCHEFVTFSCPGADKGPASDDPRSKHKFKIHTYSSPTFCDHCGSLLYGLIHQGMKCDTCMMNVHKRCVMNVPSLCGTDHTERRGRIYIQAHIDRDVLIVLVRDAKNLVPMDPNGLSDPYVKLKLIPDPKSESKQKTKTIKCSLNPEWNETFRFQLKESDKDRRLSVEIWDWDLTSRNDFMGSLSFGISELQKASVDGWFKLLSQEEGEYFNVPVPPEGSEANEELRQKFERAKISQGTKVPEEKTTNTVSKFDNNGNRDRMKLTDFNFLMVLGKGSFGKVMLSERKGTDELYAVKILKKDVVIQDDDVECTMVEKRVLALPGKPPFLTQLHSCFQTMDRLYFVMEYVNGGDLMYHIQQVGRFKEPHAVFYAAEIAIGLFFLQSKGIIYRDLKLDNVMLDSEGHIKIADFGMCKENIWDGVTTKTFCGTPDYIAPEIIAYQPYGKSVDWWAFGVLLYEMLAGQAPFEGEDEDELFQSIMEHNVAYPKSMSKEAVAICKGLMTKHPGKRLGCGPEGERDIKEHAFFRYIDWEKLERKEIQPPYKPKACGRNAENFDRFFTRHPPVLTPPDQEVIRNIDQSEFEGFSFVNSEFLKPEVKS
Sequence of IRAK1 (P51617 whole entry): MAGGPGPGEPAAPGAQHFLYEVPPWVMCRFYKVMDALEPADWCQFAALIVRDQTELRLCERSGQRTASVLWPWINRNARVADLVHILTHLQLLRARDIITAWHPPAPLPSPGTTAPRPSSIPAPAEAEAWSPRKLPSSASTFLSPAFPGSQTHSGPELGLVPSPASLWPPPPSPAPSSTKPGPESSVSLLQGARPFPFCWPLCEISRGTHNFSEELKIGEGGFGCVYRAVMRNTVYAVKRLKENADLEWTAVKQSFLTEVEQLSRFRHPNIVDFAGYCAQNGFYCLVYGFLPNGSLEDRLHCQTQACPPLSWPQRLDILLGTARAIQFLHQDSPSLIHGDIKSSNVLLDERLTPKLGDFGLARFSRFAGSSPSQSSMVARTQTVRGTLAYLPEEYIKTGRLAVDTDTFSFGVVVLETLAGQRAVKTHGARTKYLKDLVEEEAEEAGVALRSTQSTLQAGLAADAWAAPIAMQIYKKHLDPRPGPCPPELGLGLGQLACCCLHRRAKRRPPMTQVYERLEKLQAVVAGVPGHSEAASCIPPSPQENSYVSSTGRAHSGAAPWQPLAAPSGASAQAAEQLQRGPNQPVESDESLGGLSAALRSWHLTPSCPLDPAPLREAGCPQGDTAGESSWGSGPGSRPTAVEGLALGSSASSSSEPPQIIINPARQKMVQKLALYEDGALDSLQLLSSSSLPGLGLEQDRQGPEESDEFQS
Sequence of PDGFRb (P09619 33-1106): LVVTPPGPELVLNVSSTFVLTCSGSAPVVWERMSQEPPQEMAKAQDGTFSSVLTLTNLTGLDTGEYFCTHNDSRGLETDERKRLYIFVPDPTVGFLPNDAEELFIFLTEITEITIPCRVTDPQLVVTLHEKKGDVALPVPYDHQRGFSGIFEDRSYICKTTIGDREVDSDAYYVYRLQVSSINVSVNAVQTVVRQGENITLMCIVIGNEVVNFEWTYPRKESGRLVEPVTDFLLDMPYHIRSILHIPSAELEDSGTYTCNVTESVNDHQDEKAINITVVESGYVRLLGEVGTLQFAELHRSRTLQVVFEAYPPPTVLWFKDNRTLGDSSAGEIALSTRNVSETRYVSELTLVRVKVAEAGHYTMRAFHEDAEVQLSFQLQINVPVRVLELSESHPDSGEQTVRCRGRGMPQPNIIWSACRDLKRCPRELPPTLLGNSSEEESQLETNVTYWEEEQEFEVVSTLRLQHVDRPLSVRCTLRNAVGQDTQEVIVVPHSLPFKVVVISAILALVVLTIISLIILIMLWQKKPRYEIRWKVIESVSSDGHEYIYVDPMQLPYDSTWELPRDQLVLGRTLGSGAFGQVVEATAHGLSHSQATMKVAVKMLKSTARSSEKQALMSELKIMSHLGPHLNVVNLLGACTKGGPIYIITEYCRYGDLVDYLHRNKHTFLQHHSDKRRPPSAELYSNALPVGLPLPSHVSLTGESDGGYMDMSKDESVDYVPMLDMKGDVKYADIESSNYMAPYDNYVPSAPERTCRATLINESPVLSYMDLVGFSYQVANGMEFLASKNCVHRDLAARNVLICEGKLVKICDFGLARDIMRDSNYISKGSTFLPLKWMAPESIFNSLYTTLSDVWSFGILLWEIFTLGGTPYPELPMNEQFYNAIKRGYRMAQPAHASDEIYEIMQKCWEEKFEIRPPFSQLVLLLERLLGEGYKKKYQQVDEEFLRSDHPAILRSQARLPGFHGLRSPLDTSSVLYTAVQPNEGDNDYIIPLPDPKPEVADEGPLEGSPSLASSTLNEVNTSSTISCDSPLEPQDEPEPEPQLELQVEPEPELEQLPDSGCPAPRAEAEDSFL

SMILES: CCn1cnc2c(NCc3ccc(-c4ccccn4)nc3)nc(-c3ccc(N)nc3)nc21 [Example 53, N-([2,2′-bipyridin]-5-ylmethyl)-2-(6-aminopyridin-3-yl)-9-ethyl-9H-purin-6-amine]
- remaining activity at 10 µM (RIPK4): 97.8%
- remaining activity at 10 µM (MST2/STK3): 53.5%
- remaining activity at 10 µM (CK2a2): 91.3%
- remaining activity at 10 µM (RIPK5): 67.8%
- remaining activity at 10 µM (ACK1): 13.7%
- remaining activity at 10 µM (LATS2): 77.4%
- remaining activity at 10 µM (TSSK3/STK22C): 91.5%
- remaining activity at 10 µM (PLK3): 94.4%
- anti-proliferative activity of trastuzumab on co-treatment (SK-Br3 and HCC1954 cells): slightly enhanced
- anti-proliferative activity of trastuzumab on co-treatment (SK-Br3 and HCC1954 cells; listed as Compound 53): slightly increased
- remaining activity at 10 µM (PKCb2): 39.6%
- remaining activity at 10 µM (FMS): 35.4%
- remaining activity at 10 µM (CDK2/cyclin O): 0.54%
- remaining activity at 10 µM (NLK): 24.8%
- remaining activity at 10 µM (TYK2): 90.7%
- remaining activity at 10 µM (SRPK1): 54.3%
- remaining activity at 10 µM (FGFR3): 30.6%
- remaining activity at 10 µM (EPHA5): 5.86%
- remaining activity at 10 µM (CDK5/p35): 0.67%
- remaining activity at 10 µM (CDK9/cyclin T2): 1.95%
- remaining activity at 10 µM (FLT4/VEGFR3): 10%
- remaining activity at 10 µM (PIM3): 86.7%
- remaining activity at 10 µM (PKCd): 95.2%
- remaining activity at 10 µM (FAK/PTK2): 52.5%
- remaining activity at 10 µM (YSK4/MAP3K19): 96.8%
- remaining activity at 10 µM (DYRK4): 89.3%
- remaining activity at 10 µM (PDGFRb): 34.7%
- remaining activity at 10 µM (MLCK/MYLK): 63.4%
- remaining activity at 10 µM (MKK7): 96.3%
- remaining activity at 10 µM (Aurora A): 33.4%
- remaining activity at 10 µM (CAMK2b): 65.2%
- remaining activity at 10 µM (MEK5): 84.1%
- remaining activity at 10 µM (FGFR2): 33.7%
- remaining activity at 10 µM (WEE1): 90.2%
- remaining activity at 10 µM (IRAK1): 79%
- remaining activity at 10 µM (ERN2/IRE2): 65.4%
- remaining activity at 10 µM (KSR2): 88.4%
- remaining activity at 10 µM (KHS/MAP4K5): 88.3%
- remaining activity at 10 µM (JAK2): 87%

From patent US20250101023A1, “HETEROARYL DERIVATIVE AND USES THEREOF” (IUCF-HYU (INDUSTRY-UNIVERSITY COOPERATION FOUNDATION …, priority 2022, published 2025)
